# Patent US10441578B2, “Altering expression level of glutathione S-transferase genes by treating a human subject with a nitroxide” (priority 2018, dated 2019)
# Legend:
# Type in all cases: in vivo
# [1] = test system: Gstm3, Gstm6, Gsta3, Gstt1, Gsta4, Gstm1, Gstm4, Gstt2, Gstp1, or Gstk1; experiment: Treatment of a human subject with a nitroxide antioxidant, serum level of GST; conditions: 1500 mg per day for 180 days
# Method: (§1) A 70-kilogram human subject over the age of 65 is identified for decreased expression level of Gstm3, Gstm6, Gsta3, Gstt1, Gsta4, Gstm1, Gstm4, Gstt2, Gstp1, or Gstk1. The human subject is administered a dose of 1500 mg of a nitroxide antioxidant (e.g., Tempol) per day for 180 days. This may be administered in a single dose, or may be administered as a number of smaller doses over a 24-hour period: for example, three 500-mg doses at eight-hour intervals. Following treatment, the serum level of Gstm3, Gstm6, Gsta3, Gstt1, Gsta4, Gstm1, Gstm4, Gstt2, Gstp1, or Gstk1, is increased.
# as §1, with “65 and having a cardiovascular disease” for “65”
# as §1, with “subject” for “subject over the age of 65”
# as §1, with “subject” for “subject over the age of 65”, “Gstk1 that is associated with a disease (e.g., caused by or causing a disease).” for “Gstk1.”
# as §1, with “at risk” for “over the age”, “developing a cancer (e.g., colorectal cancer) or having a cancer” for “65”
# as §1, with “at risk” for “over the age”, “developing or having an autoimmune disease (e.g., rheumatoid arthritis)” for “65”
# A 70-kilogram human subject of person at risk of developing, or having, a condition due to aging is identified. The human subject is administered a dose of 1500 mg of a nitroxide antioxidant (e.g., Tempol) per day for 180 days. […]
# [2] = test system: Glutathione S-transferase, alpha 4 (Gsta4); experiment: Microarray gene expression in white adipose tissue of Tempol-fed mice
# Method: (§2) To assess the effects of Tempol on gene expression, Tempol was administered to experimental mice at a dose of 5 mg/g of food from 14 months to 31 months after birth. Mice receiving the same food without the addition of Tempol were used as a negative control. At the age of 31 months, the experimental animals were sacrificed and the hearts were surgically removed. The expression of a broad spectrum of genes in white adipose tissue tissue was assessed using chip-based microarray technology. Such chips are well known in the art and are widely used to assess gene expression.
# [3] = test system: Glutathione S-transferase, mu 4 (Gstm4); experiment: as above
# Method: as §2
# [4] = test system: Glutathione S-transferase, alpha 3 (Gsta3); experiment: as above
# Method: as §2
# [5] = test system: Glutathione S-transferase, theta 2 (Gstt2); experiment: as above
# Method: as §2
# [6] = test system: Glutathione S-transferase, theta 1 (Gstt1); experiment: as above
# Method: as §2
# [7] = test system: Glutathione S-transferase, mu 3 (Gstm3); experiment: as above
# Method: as §2
# [8] = test system: Glutathione S-transferase, mu 6 (Gstm6); experiment: as above
# Method: as §2
# [9] = test system: Glutathione S-transferase, mu 1 (Gstm1); experiment: as above
# Method: as §2
# [10] = test system: Glutathione S-transferase, pi 1 (Gstp1); experiment: as above
# Method: as §2
# [11] = test system: Glutathione S-transferase kappa1 (Gstk1); experiment: as above
# Method: as §2
# [12] = Tempol-treated vs control mice, microarray
# [13] = Tempol-treated vs control mice, P-value 0.003
# [14] = Tempol-treated vs control mice, P-value 0.001
smiles,measurement,setting,value
"CC1(C)CC(O)CC(C)(C)N1[O] [Tempol, 4-hydroxy-2,2,6,6-tetramethylpiperidine-1-oxyl]",Serum level of GST following treatment,[1]; Example 2: human subject over the age of 65 with decreased expression,increased
same,Serum level of GST following treatment,[1]; Example 3: human subject over the age of 65 having a cardiovascular disease,increased
same,Serum level of GST following treatment,[1]; Example 4: human subject with decreased expression level,increased
same,Serum level of GST following treatment,[1]; Example 5: decreased expression associated with a disease,increased
same,Serum level of GST following treatment,[1]; Example 6: human subject at risk of developing or having a cancer,increased
same,Serum level of GST following treatment,[1]; Example 7: human subject at risk of developing or having an autoimmune disease,increased
same,Serum level of GST following treatment,"[1]; Example 8: human subject, condition due to aging",increased
same,Serum level of GST following treatment,[1]; Example 9: human subject at risk of developing or having a neurodegenerative disease,increased
same,Serum level of GST following treatment,[1]; Example 10: human subject having an infection,increased
same,"Expression, Tempol-treated mice","[2]; Tempol 5 mg/g of food from 14 to 31 months after birth, microarray, control mice 195",284
same,Fold change,"[2]; Tempol-treated vs control mice, P-value 0.006",1.45
same,Change in expression (in words),[2]; [12],statistically significant increase in expression
same,"Expression, Tempol-treated mice","[3]; Tempol 5 mg/g of food from 14 to 31 months after birth, microarray, control mice 416",533
same,Fold change,[3]; [13],1.28
same,Change in expression (in words),[3]; [12],statistically significant increase in expression
same,"Expression, Tempol-treated mice","[4]; Tempol 5 mg/g of food from 14 to 31 months after birth, microarray, control mice 668",1183
same,Fold change,"[4]; Tempol-treated vs control mice, P-value 0.004",1.77
same,Change in expression (in words),[4]; [12],statistically significant increase in expression
same,"Expression, Tempol-treated mice","[5]; Tempol 5 mg/g of food from 14 to 31 months after birth, microarray, control mice 446",546
same,Fold change,"[5]; Tempol-treated vs control mice, P-value 0.035",1.22
same,Change in expression (in words),[5]; [12],statistically significant increase in expression
same,"Expression, Tempol-treated mice","[6]; Tempol 5 mg/g of food from 14 to 31 months after birth, microarray, control mice 1017",1619
same,Fold change,[6]; [14],1.59
same,Change in expression (in words),[6]; [12],statistically significant increase in expression
same,"Expression, Tempol-treated mice","[7]; Tempol 5 mg/g of food from 14 to 31 months after birth, microarray, control mice 10",74
same,Fold change,[7]; [14],7.52
same,Change in expression (in words),[7]; [12],statistically significant increase in expression
same,"Expression, Tempol-treated mice","[8]; Tempol 5 mg/g of food from 14 to 31 months after birth, microarray, control mice 147",265
same,Fold change,"[8]; Tempol-treated vs control mice, P-value 0.034",1.8
same,Change in expression (in words),[8]; [12],statistically significant increase in expression
same,"Expression, Tempol-treated mice","[9]; Tempol 5 mg/g of food from 14 to 31 months after birth, microarray, control mice 6291",8548
same,Fold change,[9]; [13],1.36
same,Change in expression (in words),[9]; [12],statistically significant increase in expression
same,"Expression, Tempol-treated mice","[10]; Tempol 5 mg/g of food from 14 to 31 months after birth, microarray, control mice 5711",6812
same,Fold change,"[10]; Tempol-treated vs control mice, P-value 0.005",1.19
same,Change in expression (in words),[10]; [12],statistically significant increase in expression
same,"Expression, Tempol-treated mice","[11]; Tempol 5 mg/g of food from 14 to 31 months after birth, microarray, control mice 1140",1325
same,Fold change,"[11]; Tempol-treated vs control mice, P-value 0.015",1.16
same,Change in expression (in words),[11]; [12],statistically significant increase in expression
